From ChEMBL document CHEMBL1201862, “PubChem BioAssay data set” (2004)
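The compound was tested at five concentrations on cells cultured in 96-well plates, with a 48-hour exposure period. GI50 is the concentration that inhibits growth by half.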 The source made the active and inactive calls. Rule as the data show it: active = GI50 up to about 1.1 µM and inactive = higher.

Columns and labels:
Experiment in all cases: inhibition of tumour cell growth, NCI panel, 48 h
[1] = system: 786-0
[2] = system: A498
[3] = system: A549
[4] = system: ACHN
[5] = system: BT-549
[6] = system: CAKI-1
[7] = system: CCRF-CEM
[8] = system: COLO 205
[9] = system: DU-145
[10] = system: EKVX
[11] = system: HCT-116
[12] = system: HCT-15
[13] = system: HL-60
[14] = system: HOP-62
[15] = system: HT-29
[16] = system: Hs-578T
[17] = system: IGROV-1
[18] = system: KM12
[19] = system: LOX IMVI
[20] = system: M14
[21] = system: MCF7
[22] = system: MDA-MB-231
[23] = system: MDA-MB-435
[24] = system: MDA-N
[25] = system: MOLT-4
[26] = system: Malme-3M
[27] = system: NCI-H226
[28] = system: NCI-H23
[29] = system: NCI-H522
[30] = system: NCI/ADR-RES
[31] = system: OVCAR-4
[32] = system: OVCAR-5
[33] = system: OVCAR-8
[34] = system: PC-3
[35] = system: RXF 393
[36] = system: SF-268
[37] = system: SF-295
[38] = system: SF-539
[39] = system: SK-MEL-28
[40] = system: SK-MEL-2
[41] = system: SK-MEL-5
[42] = system: SK-OV-3
[43] = system: SN12C
[44] = system: SNB-19
[45] = system: SNB-75
[46] = system: SW-620
[47] = system: T47D
[48] = system: TK-10
[49] = system: U-251
[50] = system: UACC-257
[51] = system: UACC-62
[52] = system: UO-31
[53] = system: HCC 2998
[54] = system: HOP-92
[55] = system: K562
[56] = system: NCI-H460
[57] = system: OVCAR-3
[58] = system: RPMI-8226

**Q.** What does the source list for `COCN1C(=O)[C@@H]2C[C@@H](OC/C=C/CBr)CN2C(=O)c2ccccc21`?
**A.** GI50 [1]: 21.5 µM (inactive); GI50 [2]: 26.1 µM (inactive); GI50 [3]: 17.1 µM (inactive); GI50 [4]: 19.9 µM (inactive); GI50 [5]: 26.7 µM (inactive); GI50 [6]: 17.4 µM (inactive); GI50 [7]: 5.77 µM (inactive); GI50 [8]: 15.8 µM (inactive); GI50 [9]: 19.4 µM (inactive); GI50 [10]: 23 µM (inactive); GI50 [11]: 13.2 µM (inactive); GI50 [12]: 17.9 µM; GI50 [13]: 6.27 µM (inactive); GI50 [14]: 22.7 µM (inactive); GI50 [15]: 20.2 µM (inactive); GI50 [16]: 26.5 µM (inactive); GI50 [17]: 9.23 µM (inactive); GI50 [18]: 22 µM (inactive); GI50 [19]: 2.04 µM (inactive); GI50 [20]: 16.1 µM (inactive); GI50 [21]: 5.78 µM (inactive); GI50 [22]: 17.5 µM (inactive); GI50 [23]: 14.9 µM (inactive); GI50 [24]: 15.8 µM (inactive); GI50 [25]: 17.7 µM (inactive); GI50 [26]: 15.6 µM (inactive); GI50 [27]: 9.38 µM (inactive); GI50 [28]: 23.2 µM (inactive); GI50 [29]: 5.68 µM (inactive); GI50 [30]: 26.9 µM (inactive); GI50 [31]: 14.6 µM (inactive); GI50 [32]: 20.1 µM (inactive); GI50 [33]: 14.5 µM (inactive); GI50 [34]: 17.1 µM (inactive); GI50 [35]: 14 µM (inactive); GI50 [36]: 25.1 µM (inactive); GI50 [37]: 22.3 µM (inactive); GI50 [38]: 17.5 µM (inactive); GI50 [39]: 18.9 µM (inactive); GI50 [40]: 29.7 µM (inactive); GI50 [41]: 14.4 µM (inactive); GI50 [42]: 33.3 µM (inactive); GI50 [43]: 14.1 µM (inactive); GI50 [44]: 21.3 µM (inactive); GI50 [45]: 10.7 µM (inactive); GI50 [46]: 13.9 µM (inactive); GI50 [47]: 19.5 µM (inactive); GI50 [48]: 19.3 µM (inactive); GI50 [49]: 14.5 µM (inactive); GI50 [50]: 16.5 µM (inactive); GI50 [51]: 19 µM (inactive); GI50 [52]: 18.9 µM (inactive)

**Q.** Which results are given for `CN1C/C(=C\c2cccs2)C(O)/C(=C/c2cccs2)C1` (configuration not stated)?
**A.** GI50 [1]: > 100 µM (inactive); GI50 [2]: > 100 µM (inactive); GI50 [3]: > 100 µM (inactive); GI50 [4]: > 100 µM (inactive); GI50 [5]: > 100 µM (inactive); GI50 [6]: 97.5 µM (inactive); GI50 [7]: 27 µM (inactive); GI50 [8]: 87.1 µM (inactive); GI50 [9]: > 100 µM (inactive); GI50 [10]: > 100 µM (inactive); GI50 [53]: 41.1 µM (inactive); GI50 [11]: 72.4 µM (inactive); GI50 [12]: > 100 µM; GI50 [14]: > 100 µM (inactive); GI50 [54]: 20.4 µM (inactive); GI50 [15]: > 100 µM (inactive); GI50 [16]: > 100 µM (inactive); GI50 [17]: 53 µM (inactive); GI50 [55]: 57.8 µM (inactive); GI50 [18]: > 100 µM (inactive); GI50 [19]: > 100 µM (inactive); GI50 [20]: > 100 µM (inactive); GI50 [21]: 48.5 µM (inactive); GI50 [22]: > 100 µM (inactive); GI50 [23]: > 100 µM (inactive); GI50 [24]: > 100 µM (inactive); GI50 [25]: 25.2 µM (inactive); GI50 [26]: 50.1 µM (inactive); GI50 [27]: > 100 µM (inactive); GI50 [28]: > 100 µM (inactive); GI50 [56]: > 100 µM (inactive); GI50 [29]: 35.1 µM (inactive); GI50 [30]: > 100 µM (inactive); GI50 [57]: > 100 µM (inactive); GI50 [31]: 35.5 µM (inactive); GI50 [32]: > 100 µM (inactive); GI50 [33]: > 100 µM (inactive); GI50 [34]: > 100 µM (inactive); GI50 [58]: 20.2 µM (inactive); GI50 [35]: > 100 µM (inactive); GI50 [36]: > 100 µM (inactive); GI50 [37]: > 100 µM (inactive); GI50 [39]: > 100 µM (inactive); GI50 [40]: > 100 µM (inactive); GI50 [41]: > 100 µM (inactive); GI50 [42]: > 100 µM (inactive); GI50 [43]: 74.5 µM (inactive); GI50 [44]: > 100 µM (inactive); GI50 [46]: > 100 µM (inactive); GI50 [47]: 25.8 µM (inactive); GI50 [48]: > 100 µM (inactive); GI50 [49]: > 100 µM (inactive); GI50 [50]: 89.5 µM (inactive); GI50 [51]: > 100 µM (inactive); GI50 [52]: 97.3 µM (inactive)
